What was measured:
[1] = test system: mice with alloxan diabetes; experiment: Blood glucose level in mice with alloxan diabetes (Example 1); assay type: in vivo; conditions: exenatide 7.5 mcg/kg
Protocol: Diabetes was induced in white mice by a single intraperitoneal administration of alloxan in a dose of 135 mg/kg. […] Control animals received injections of saline solution. By day 31 of the experiment, the levels of blood glucose and cholesterol were measured after an overnight fast. Data are presented as a mean±standard deviation (n=5) of the measured levels of glucose or cholesterol. […] To determine the therapeutic effect of lowering the level of glucose, the following formula was used:
ΔGlucose=Glucosemedication−Glucosecontrol.
(§1) Statistical differences of the obtained results were assessed with the use of Student's t-test.

[2] = test system: mice with alloxan diabetes; experiment: Blood cholesterol level in mice with alloxan diabetes (Example 1); assay type: in vivo; conditions: exenatide 7.5 mcg/kg
Protocol: Diabetes was induced in white mice by a single intraperitoneal administration of alloxan in a dose of 135 mg/kg. […] Control animals received injections of saline solution. By day 31 of the experiment, the levels of blood glucose and cholesterol were measured after an overnight fast. Data are presented as a mean±standard deviation (n=5) of the measured levels of glucose or cholesterol. […] To determine the therapeutic effect of lowering the level of glucose, the following formula was used: […]
To determine the therapeutic effect of lowering the level of cholesterol, the following formula was used:
ΔCholesterol=Cholesterolmedication−Cholesterolcontrol.
as §1

[3] = day 31, after overnight fast, s.c. twice daily for 30 days, dalargin 8.8 mcg/kg
[4] = day 31, after overnight fast, s.c. twice daily for 30 days, dalargin 8.8 mcg/kg, mean±SD, n=5
[5] = dalargin 8.8 mcg/kg s.c. twice daily for 30 days

tirozil-2-alanil-glycil-phenylalanyl-leucil-arginine [Dalargin]
Δ Glucose (Glucose medication − Glucose control) [1, 3]: -0.9 mmol/L
Glucose [1, 4]: 10.6 ± 1.3 mmol/L
effect on blood glucose levels after an overnight fast (in words) [1, 5]: inefficient
Δ Cholesterol (Cholesterol medication − Cholesterol control) [2, 3]: -0.27 mmol/L
Cholesterol [2, 4]: 2.34 ± 0.16 mmol/L
effect on blood cholesterol after an overnight fast (in words) [2, 5]: inefficient
